Tested on: mutant HTT protein (mHTT)
Experiment: Homogeneous Time Resolved Fluorescence (HTRF) assay for HTT lowering
Format: cell-based
Conditions: reduction of mHTT in Huntington patient human cells (GENEAe020-A cell line), 48 hours incubation, mean from three replicates
Description: Homogeneous Time Resolved Fluorescence for HTT lowering
The HTRF assay was adapted from Weiss et al. (Analytical Biochemistry Volume 395, Issue 1, 1 Dec. 2009, Pages 8-15 and Analytical Biochemistry Volume 410, 2011, Pages 304-306) to cells from GENEAe020-A cell line (https://hpscreg.eu/cell-line/GENEAe020-A).
Compounds were tested for the effect of mutant HTT levels in Huntington patient human cells (GENEAe020-A cell line) using Homogeneous Time Resolved Fluorescence (HTRF) directed towards mutant HTT protein (mHTT). The GENEAe020-A cell line was derived by Genea Biocells from human blastocysts of HD donors. After assessing viability, cells were plated into 384 well collagen coated plates in growth media. Once cells adhered, media was removed and test compounds dissolved in DMSO were diluted with buffer solution and added to the adherent cells. Controls included experiments with no cells, DMSO with no compound, and Hsp90 inhibitor control. Cells were incubated with compounds and controls for 48 hours. Then, the cells were lysed and transferred to an assay plate containing HTRF labeled monoclonal antibodies developed by Paul Patterson (Ko et al., Brain Research Bulletin, Volume 56, Numbers 3 and 4, 2001, Pages 319-329) which recognize specific areas of the HTT protein. The terbium labeled “donor” antibody (2B7) binds to the N-terminus of the HTT protein and the Alexa488 labeled “acceptor” antibody (MW1) is specific for the polyglutamine region of the protein. Binding of the acceptor labeled antibody is more efficient for the extended polyglutamine repeats of mutant HTT protein which translates into a signal boost which enables the specific measurement of mutant HTT protein level. The HTRF donor and acceptor detection reagents were incubated with the cell lysate and the ratio between the signals of the two fluorophores is indicative of the relative quantities of mHTT.

In the case of `Cc1cn2nc(-c3cc(=O)n4cc(N5CC[C@H](N6CCCC6)C5)sc4n3)cc(C)c2n1` [Example 21, 7-(2,8-dimethylimidazo[1,2-b]pyridazin-6-yl)-2-[(3S)-3-pyrrolidin-1-ylpyrrolidin-1-yl]thiazolo[3,2-a]pyrimidin-5-one], the EC50 is reported as 4200 nM.

In the case of `COc1cc(-c2cc(=O)n3cc([C@H]4CCNC[C@@H]4F)sc3n2)nn2cc(C)nc12` [Example 46, 7-(8-methoxy-2-methyl-imidazo[1,2-b]pyridazin-6-yl)-2-[(3R,4S)-3-fluoro-4-piperidyl]thiazolo[3,2-a]pyrimidin-5-one], the EC50 is reported as 69 nM.

`COc1cc(-c2cc(=O)n3cc([C@H]4CCNC5(CC5)C4)sc3n2)nn2cc(C)nc12` [Example 40, 7-(8-methoxy-2-methyl-imidazo[1,2-b]pyridazin-6-yl)-2-[(7S)-4-azaspiro[2.5]octan-7-yl]thiazolo[3,2-a]pyrimidin-5-one] showed an EC50 of 83 nM.

For `COc1cc(-c2cc(=O)n3cc(N4CCNCC4)sc3n2)nn2cc(C)nc12` [Example 13, 7-(8-methoxy-2-methyl-imidazo[1,2-b]pyridazin-6-yl)-2-piperazin-1-yl-thiazolo[3,2-a]pyrimidin-5-one], the EC50 was 118 nM.

For `COc1cc(-c2cc(=O)n3cc([C@@H]4CCNC[C@H]4F)sc3n2)nn2cc(C)nc12` [Example 45, 7-(8-methoxy-2-methyl-imidazo[1,2-b]pyridazin-6-yl)-2-[(3S,4R)-3-fluoro-4-piperidyl]thiazolo[3,2-a]pyrimidin-5-one], the EC50 was 97 nM.

`Cc1cc(-c2cc(=O)n3cc(C4CCNCC4)sc3n2)nn2cc(Cl)nc12` [Example 31, 7-(2-chloro-8-methyl-imidazo[1,2-b]pyridazin-6-yl)-2-(4-piperidyl)thiazolo[3,2-a]pyrimidin-5-one] gave an EC50 of 71 nM.

`Cc1cn2nc(-c3cc(=O)n4cc([C@]5(F)CCNC[C@@H]5F)sc4n3)cc(C)c2n1` (racemic) [Example 54, 7-(2,8-dimethylimidazo[1,2-b]pyridazin-6-yl)-2-[rac-(3S,4S)-3,4-difluoro-4-piperidyl]thiazolo[3,2-a]pyrimidin-5-one] gave an EC50 of 556 nM.

Work on `Cc1cn2nc(-c3cc(=O)n4cc(N5CCNCC5)sc4n3)cc(OC(F)F)c2n1` [Example 27, 7-[8-(difluoromethoxy)-2-methyl-imidazo[1,2-b]pyridazin-6-yl]-2-piperazin-1-yl-thiazolo[3,2-a]pyrimidin-5-one] yielded an EC50 of 68 nM.

In the case of `Cc1nc2c(C)cc(-c3cc(=O)n4cc(C5CCNCC5)sc4n3)nc2o1` [Example 30, 7-(2,7-dimethyloxazolo[5,4-b]pyridin-5-yl)-2-(4-piperidyl)thiazolo[3,2-a]pyrimidin-5-one], the EC50 is reported as 40 nM.

In the case of `COc1cc(-c2cc(=O)n3cc(C4(F)CCNCC4)sc3n2)nn2cc(C)nc12` [Example 42, 2-(4-fluoro-4-piperidyl)-7-(8-methoxy-2-methyl-imidazo[1,2-b]pyridazin-6-yl)thiazolo[3,2-a]pyrimidin-5-one], the EC50 is reported as 53 nM.

Compound `Cc1cn2nc(-c3cc(=O)n4cc([C@@H]5CCNC[C@H]5F)sc4n3)cc(C)c2n1` [Example 38, 7-(2,8-dimethylimidazo[1,2-b]pyridazin-6-yl)-2-[(3S,4R)-3-fluoro-4-piperidyl]thiazolo[3,2-a]pyrimidin-5-one] has an EC50 of 280 nM.

Work on `COc1cc(-c2cc(=O)n3cc(C4CCNCC4)sc3n2)nn2cc(C)nc12` [Example 29, 7-(8-methoxy-2-methyl-imidazo[1,2-b]pyridazin-6-yl)-2-(4-piperidyl)thiazolo[3,2-a]pyrimidin-5-one] yielded an EC50 of 35 nM.

`CCc1cc(-c2cc(=O)n3cc(N4CCNCC4)sc3n2)nn2cc(C)nc12` [Example 12, 7-(8-ethyl-2-methyl-imidazo[1,2-b]pyridazin-6-yl)-2-piperazin-1-yl-thiazolo[3,2-a]pyrimidin-5-one] was tested, and the EC50 was 104 nM.

`COc1cc(-c2cc(=O)n3cc([C@]4(F)CCNC[C@H]4F)sc3n2)nn2cc(C)nc12` (racemic) [Example 51, 7-(8-methoxy-2-methyl-imidazo[1,2-b]pyridazin-6-yl)-2-[rac-(3R,4S)-3,4-difluoro-4-piperidyl]thiazolo[3,2-a]pyrimidin-5-one] showed an EC50 of 102 nM.

`Cc1cn2nc(-c3cc(=O)n4cc([C@@H]5CCNC6(CC6)C5)sc4n3)cc(C)c2n1` [Example 37, 7-(2,8-dimethylimidazo[1,2-b]pyridazin-6-yl)-2-[(7R)-4-azaspiro[2.5]octan-7-yl]thiazolo[3,2-a]pyrimidin-5-one] showed an EC50 of 112 nM.

`Cc1cn2nc(-c3cc(=O)n4cc(N5CCNCC5)sc4n3)cc(C(F)(F)F)c2n1` [Example 11, 7-[2-methyl-8-(trifluoromethyl)imidazo[1,2-b]pyridazin-6-yl]-2-piperazin-1-yl-thiazolo[3,2-a]pyrimidin-5-one] showed an EC50 of 19 nM.

`Cc1cn2nc(-c3cc(=O)n4cc(N5CCNCC5)sc4n3)cc(C3CC3)c2n1` [Example 18, 7-(8-cyclopropyl-2-methyl-imidazo[1,2-b]pyridazin-6-yl)-2-piperazin-1-yl-thiazolo[3,2-a]pyrimidin-5-one] gave an EC50 of 469 nM.

`Cc1nc2c(C(F)(F)F)cc(-c3cc(=O)n4cc(N5CCNCC5)sc4n3)nc2o1` [Example 28, 7-[2-methyl-7-(trifluoromethyl)oxazolo[5,4-b]pyridin-5-yl]-2-piperazin-1-yl-thiazolo[3,2-a]pyrimidin-5-one] gave an EC50 of 691 nM.

`Cc1nc2c(F)cc(-c3cc(=O)n4cc(N5CCNCC5)sc4n3)cc2o1` [Example 5, 7-(4-fluoro-2-methyl-1,3-benzoxazol-6-yl)-2-piperazin-1-yl-thiazolo[3,2-a]pyrimidin-5-one] was tested, and the EC50 was 499 nM.

In the case of `Cc1cn2nc(-c3cc(=O)n4cc(N5CC6CNCC6C5)sc4n3)cc(C)c2n1` (stereo not drawn) [Example 17, 2-(2,3,3a,4,6,6a-hexahydro-1H-pyrrolo[3,4-c]pyrrol-5-yl)-7-(2,8-dimethylimidazo[1,2-b]pyridazin-6-yl)thiazolo[3,2-a]pyrimidin-5-one], the EC50 is reported as 421 nM.

`Cc1cn2nc(-c3cc(=O)n4cc(N5CCNCC5)sc4n3)cc(C(C)C)c2n1` [Example 23, 7-(8-isopropyl-2-methyl-imidazo[1,2-b]pyridazin-6-yl)-2-piperazin-1-yl-thiazolo[3,2-a]pyrimidin-5-one] gave an EC50 of 671 nM.

For `COc1cc(-c2cc(=O)n3cc([C@@H]4CCNC[C@@H]4F)sc3n2)nn2cc(C)nc12` [Example 34, 7-(8-methoxy-2-methyl-imidazo[1,2-b]pyridazin-6-yl)-2-[(3R,4R)-3-fluoro-4-piperidyl]thiazolo[3,2-a]pyrimidin-5-one], the EC50 was 22 nM.

Compound `Cc1cn2nc(-c3cc(=O)n4cc(N5CCN6CCC[C@@H]6C5)sc4n3)cc(C)c2n1` [Example 15, 7-(2,8-dimethylimidazo[1,2-b]pyridazin-6-yl)-2-[(8aR)-3,4,6,7,8,8a-hexahydro-1H-pyrrolo[1,2-a]pyrazin-2-yl]thiazolo[3,2-a]pyrimidin-5-one] has an EC50 of 123 nM.

For `COc1cc(-c2cc(=O)n3cc([C@@]4(F)CCNC[C@@H]4F)sc3n2)nn2cc(C)nc12` [Example 59, 7-(8-methoxy-2-methyl-imidazo[1,2-b]pyridazin-6-yl)-2-[(3S,4R)-3,4-difluoro-4-piperidyl]thiazolo[3,2-a]pyrimidin-5-one], the EC50 was 428 nM.

For `Cc1cn2nc(-c3cc(=O)n4cc(N5CCNCC5)sc4n3)cc(C)c2n1` [Example 1, 7-(2,8-dimethylimidazo[1,2-b]pyridazin-6-yl)-2-piperazin-1-yl-thiazolo[3,2-a]pyrimidin-5-one], the EC50 was 46 nM.

Work on `Cc1cn2nc(-c3cc(=O)n4cc(C5(F)CCNCC5)sc4n3)cc(C)c2n1` [Example 26, 7-(2,8-dimethylimidazo[1,2-b]pyridazin-6-yl)-2-(4-fluoro-4-piperidyl)thiazolo[3,2-a]pyrimidin-5-one] yielded an EC50 of 128 nM.

`Cc1cn2nc(-c3cc(=O)n4cc(N5CCN[C@@H](C)C5)sc4n3)cc(C)c2n1` [Example 6, 7-(2,8-dimethylimidazo[1,2-b]pyridazin-6-yl)-2-[(3S)-3-methylpiperazin-1-yl]thiazolo[3,2-a]pyrimidin-5-one] gave an EC50 of 268 nM.

`COc1cc(-c2cc(=O)n3cc([C@H]4CCNC[C@H]4F)sc3n2)nn2cc(C)nc12` [Example 35, 7-(8-methoxy-2-methyl-imidazo[1,2-b]pyridazin-6-yl)-2-[(3S,4S)-3-fluoro-4-piperidyl]thiazolo[3,2-a]pyrimidin-5-one] was tested, and the EC50 was 61 nM.

`Cc1cn2nc(-c3cc(=O)n4cc(N5C[C@@H]6C[C@H]5CN6)sc4n3)cc(C)c2n1` [Example 16, 7-(2,8-dimethylimidazo[1,2-b]pyridazin-6-yl)-2-[(1S,4S)-2,5-diazabicyclo[2.2.1]heptan-2-yl]thiazolo[3,2-a]pyrimidin-5-one] gave an EC50 of 9540 nM.

For `COc1cc(-c2cc(=O)n3cc([C@]4(F)CCNC[C@@H]4F)sc3n2)nn2cc(C)nc12` (racemic) [Example 52, 7-(8-methoxy-2-methyl-imidazo[1,2-b]pyridazin-6-yl)-2-[rac-(3S,4S)-3,4-difluoro-4-piperidyl]thiazolo[3,2-a]pyrimidin-5-one], the EC50 was 237 nM.

Reference: US20240018163A1, “NEW THIAZOLOPYRIMIDINONE DERIVATIVES” (Hoffmann-La Roche Inc., priority 2021, published 2024)
